Assays:
[1] = test system: Glomerella laqenarium (Colletotrichum laqenarium); assay: Glomerella laqenarium (Colletotrichum laqenarium) liquid culture / cucumber / preventative (anthracnose); assay type: cell-based; details: 20 ppm in the applied formulation, liquid culture in PDB, 24° C., 3 to 4 days after application, read-out: disease control compared to untreated control (inhibition of growth, photometric)
Method: Mycelia fragments or conidia suspensions of a fungus prepared either freshly from liquid cultures of the fungus or from cryogenic storage, are directly mixed into nutrient broth. DMSO solutions of the test compound (max. 10 mg/ml) are diluted with 0.025% Tween20 by a factor of 50 and 10 μl of this solution is pipetted into a microtiter plate (96-well format). The nutrient broth containing the fungal spores/mycelia fragments is then added to give an end concentration of the tested compound. The test plates are incubated in the dark at 24° C. and 96% relative humidity. The inhibition of fungal growth is determined photometrically after 2 to 7 days, depending on the pathosystem, and percent antifungal activity relative to the untreated check is calculated.
Conidia of the fungus from cryogenic storage are directly mixed into nutrient broth (PDB—potato dextrose broth). After placing a (DMSO) solution of test compound into a microtiter plate (96-well format), the nutrient broth containing the fungal spores is added. The test plates are incubated at 24° C. and the inhibition of growth is measured photometrically 3 to 4 days after application.
The following compounds at 20 ppm in the applied formulation give at least 80% disease control in this test when compared to untreated control under the same conditions, which show extensive disease development.

[2] = test system: Puccinia recondita f. sp. tritici; assay: Puccinia recondita f. sp. tritici / wheat / leaf disc curative (brown rust); assay type: in vivo; details: foliar, 200 ppm in the applied formulation, wheat leaf segments cv. Kanzler, applied 1 day after inoculation, 6 to 8 days after application, read-out: disease control compared to untreated control leaf disks
Method: Leaf disks or leaf segments of various plant species are cut from plants grown in a greenhouse. The cut leaf disks or segments are placed in multiwell plates (24-well format) onto water agar. The leaf disks are sprayed with a test solution before (preventative) or after (curative) inoculation. Compounds to be tested are prepared as DMSO solutions (max. 10 mg/ml) which are diluted to the appropriate concentration with 0.025% Tween20 just before spraying. The inoculated leaf disks or segments are incubated under defined conditions (temperature, relative humidity, light, etc.) according to the respective test system. A single evaluation of disease level is carried out 3 to 14 days after inoculation, depending on the pathosystem. Percent disease control relative to the untreated check leaf disks or segments is then calculated.
Wheat leaf segments cv. Kanzler are placed on agar in multiwell plates (24-well format). The leaf segments are then inoculated with a spore suspension of the fungus. Plates were stored in darkness at 19° C. and 75% relative humidity. The formulated test compound diluted in water was applied 1 day after inoculation. The leaf segments were incubated at 19° C. and 75% relative humidity under a light regime of 12 hours light/12 hours darkness in a climate cabinet and the activity of a compound was assessed as percent disease control compared to untreated when an appropriate level of disease damage appears in untreated check leaf segments (6 to 8 days after application).
The following compounds at 200 ppm in the applied formulation give at least 80% disease control in this test when compared to untreated control leaf disks under the same conditions, which show extensive disease development.

Row | melting point [°C] | SMILES | inhibition at 20 ppm [1] [%] | pest or weed control at 200 ppm [2] [%]
1 | 166 to 175 | O=C(Nc1ccc(-c2noc(C(F)(F)F)n2)cc1F)c1ccccc1 [Compound 1.4, N-[2-fluoro-4-[5-(trifluoromethyl)-1,2,4-oxadiazol-3-yl]phenyl]benzamide] | – | –
2 | 160 to 162 | O=C(Nc1ccc(-c2noc(C(F)(F)F)n2)cc1F)C1CC1 [Compound 1.3, N-[2-fluoro-4-[5-(trifluoromethyl)-1,2,4-oxadiazol-3-yl]phenyl]cyclopropane carboxamide] | ≥ 80 | ≥ 80
3 | – | O=C(Nc1ccc(-c2noc(C(F)(F)F)n2)cc1F)C1CCOC1 (stereo not drawn) [Compound 1.7, N-[2-fluoro-4-[5-(trifluoromethyl)-1,2,4-oxadiazol-3-yl]phenyl]tetrahydrofuran-3-carboxamide] | ≥ 80 | ≥ 80
4 | – | CC1CC1C(=O)Nc1ccc(-c2noc(C(F)(F)F)n2)cc1F (stereo not drawn) [Compound 1.9, N-[2-fluoro-4-[5-(trifluoromethyl)-1,2,4-oxadiazol-3-yl]phenyl]-2-methyl-cyclopropanecarboxamide] | ≥ 80 | –
5 | – | O=C(Nc1ccc(-c2noc(C(F)(F)F)n2)cc1F)C1CCC1 [Compound 1.8, N-[2-fluoro-4-[5-(trifluoromethyl)-1,2,4-oxadiazol-3-yl]phenyl] cyclobutanecarboxamide] | ≥ 80 | –
6 | – | Cc1cc(-c2noc(C(F)(F)F)n2)ccc1NC(=O)C1(C)CC1 [Compound 1.19, 1-methyl-N-[2-methyl-4-[5-(trifluoromethyl)-1,2,4-oxadiazol-3-yl]phenyl]cyclopropane carboxamide] | ≥ 80 | ≥ 80
7 | – | O=C(Nc1ccc(-c2noc(C(F)(F)F)n2)cc1F)C1CCCO1 (stereo not drawn) [Compound 1.11, N-[2-fluoro-4-[5-(trifluoromethyl)-1,2,4-oxadiazol-3-yl]phenyl]tetrahydrofuran-2-carboxamide] | ≥ 80 | –
8 | – | Cc1cc(-c2noc(C(F)(F)F)n2)ccc1NC(=O)C1CCOC1 (stereo not drawn) [Compound 1.16, N-[2-methyl-4-[5-(trifluoromethyl)-1,2,4-oxadiazol-3-yl]phenyl]tetrahydrofuran-3-carboxamide] | ≥ 80 | –
9 | 185 to 196 | Cc1cc(-c2noc(C(F)(F)F)n2)ccc1NC(=O)C1CC1 [Compound 1.1, N-[2-methyl-4-[5-(trifluoromethyl)-1,2,4-oxadiazol-3-yl]phenyl]cyclopropane carboxamide] | – | –
10 | – | O=C(CC1CC1)Nc1ccc(-c2noc(C(F)(F)F)n2)cc1F [Compound 1.13, 2-cyclopropyl-N-[2-fluoro-4-[5-(trifluoromethyl)-1,2,4-oxadiazol-3-yl]phenyl]acetamide] | ≥ 80 | ≥ 80
11 | – | Cc1cc(-c2noc(C(F)(F)F)n2)ccc1NC(=O)C1CCCO1 (stereo not drawn) [Compound 1.20, N-[2-methyl-4-[5-(trifluoromethyl)-1,2,4-oxadiazol-3-yl]phenyl]tetrahydrofuran-2-carboxamide] | ≥ 80 | ≥ 80
12 | – | CC1(C(=O)Nc2ccc(-c3noc(C(F)(F)F)n3)cc2F)CC1 [Compound 1.10, N-[2-fluoro-4-[5-(trifluoromethyl)-1,2,4-oxadiazol-3-yl]phenyl]-1-methyl-cyclopropanecarboxamide] | ≥ 80 | ≥ 80
13 | – | O=C(Nc1ccc(-c2noc(C(F)(F)F)n2)cc1F)C1CC1(F)F (stereo not drawn) [Compound 1.5, 2,2-difluoro-N-[2-fluoro-4-[5-(trifluoromethyl)-1,2,4-oxadiazol-3-yl]phenyl]cyclopropane carboxamide] | ≥ 80 | ≥ 80
14 | 173 to 176 | Cc1cc(-c2noc(C(F)(F)F)n2)ccc1NC(=O)c1ccccc1 [Compound 1.2, N-[2-methyl-4-[5-(trifluoromethyl)-1,2,4-oxadiazol-3-yl]phenyl]benzamide] | – | –
15 | – | N#CC1(C(=O)Nc2ccc(-c3noc(C(F)(F)F)n3)cc2F)CC1 [Compound 1.12, 1-cyano-N-[2-fluoro-4-[5-(trifluoromethyl)-1,2,4-oxadiazol-3-yl]phenyl]cyclopropane carboxamide] | ≥ 80 | ≥ 80

Source: patent publication US20200138028A1, “MICROBIOCIDAL OXADIAZOLE DERIVATIVES” (SYNGENTA PARTICIPATIONS AG, priority 2016, published 2020)
